# What was measured:
# avidin = avidin (Gallus gallus, UniProt P02701); assay: Competitive binding of F-18 labeled biotin analogs to avidin vs. unlabeled d-biotin
# Description: The two biotin derivatives were evaluated for binding to avidin in the presence of varying concentrations of unlabeled d-biotin as described in Example 3.
# A preliminary measure of the binding characteristics of the fluoro analogs of biotin were performed. The binding of these novel F-18 labeled biotin analogs to avidin was evaluated by measuring the binding of F-18 labeled biotin analogs to avidin in the presence of varying concentrations of unlabeled d-biotin. Serial dilutions of d-biotin were prepared in phopshate buffered saline pH 7.4 (PBS). A fixed quantity of the no-carrier added F-18 labeled biotin 1 or 2 (10- 100µCi) were mixed with each d-biotin dilution so that the range of concentrations of cold biotin were 3 orders of magnitude greater and less than the concentration of avidin ([…]). A 200 µl aliquot of the F-18 biotin/cold biotin solution was added to 200 µl of avidin in PBS. The solution was vortexed and allowed to incubate for 1 hour after which time a 5 µl aliquot of the solution was analysed by instant thin layer chromatography (Gelman ILTC-SG) using 0.1 M acetate buffer pH 6.0. In this chromatographic system the F-18 biotin analogs bound to avidin origin while the unbound F-18-biotin analogs move to the solvent front. Percent binding of F-18 biotin analog was calculated as [(counts at origin/total counts)* 100]. For each F-18-biotin analog potential impurities remaining at the origin were determined and the results of binding corrected accordingly.
# E. coli infected rats = assay: in vivo; format: in vivo, male Sprague-Dawley rats; settings: for Infected to normal tissue ratio, Norm mus: infection/normal muscle
# Description: (§1) A clinical isolate of E. Coli was stored at -70°C in a freezing media containing 20% glycerol and 80% dextrose phosphate until use. Aliquots of bacteria were defrosted and colony counts performed on serial dilutions grown overnight on BBL Brucella agar plates. Based on the colony count, freshly thawed bacteria suspensions were washed and diluted with saline to a final concentration of […]. Aliquots (0.1 ml) of bacterial suspensions (8 x 10^9 organisms/ml) were injected into the right thigh muscle of 48 male Sprague-Dawley rats (125-150 g, Charles River Breeding Laboratories, Burlington, MD). Twenty-four rats were used for each labeled biotin compound. Twenty-four hours after injection, swelling in the right thigh readily appeared, and 24 rats each received 1.67 mg of avidin in saline via the tail vein. […] Rats were sacrificed at 5 and 60 min. post-injection, six rats per time point. Blood samples were obtained by cardiac puncture. Syringes were weighed before and after injection to determine the volume delivered. The activity per unit volume was obtained from standards. A total of eleven different tissues were excised, weighed, and counted. These tissues included blood; bone; lung; liver; adrenal; spleen; kidneys; heart; muscle (thigh); teste; and infected muscle (thigh). The excised tissues were blotted, weighed, and counted in a scintillation well counter. The raw counts were decay corrected. The results were expressed as percent injected dose per gram, and infection-to-normal muscle ratios (mean ± s.d.). The biodistribution results were evaluated by analysis of variance (one-way ANOVA). The effect of avidin […] on biodistribution was evaluated by student t-test.
# in vivo = format: in vivo, male Sprague-Dawley rats; settings: rat, in vivo, iv
# Description: as §1
# [1] = test system: E. coli infection in right thigh; settings: Time 4 (time unit not given); Reference *1; cited from earlier work
# [2] = Without Avidin, 60 Min., listed as 18F-biotin1
# [3] = Without Avidin, 60 Min., listed as 18F-labeled biotin 1
# Chain of avidin (P02701 25-152): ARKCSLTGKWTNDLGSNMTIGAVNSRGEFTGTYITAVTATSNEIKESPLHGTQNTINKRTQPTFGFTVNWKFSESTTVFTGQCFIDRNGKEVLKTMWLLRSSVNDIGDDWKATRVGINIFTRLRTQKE
compound,measurement,setting,value
O=C(CCCC[C@@H]1SC[C@@H]2NC(=O)N[C@@H]21)NCCC[18F] [Biotin 1],binding to avidin,avidin; in the presence of varying concentrations of unlabeled d-biotin,bind to avidin and could be displaced by cold d-biotin
same,Bmax,"avidin; scatchard transformation of displacement curve, cold d-biotin",5.57 x 10 ^-16 M
same,"Infected to normal tissue ratio, Adrenal","E. coli infected rats; With Avidin, 5 Min.",1.20±0.22
same,"Infected to normal tissue ratio, Blood","E. coli infected rats; With Avidin, 5 Min.",0.90±0.14
same,"Infected to normal tissue ratio, Heart","E. coli infected rats; With Avidin, 5 Min.",1.08±0.18
same,"Infected to normal tissue ratio, Kidney","E. coli infected rats; With Avidin, 5 Min.",0.28±0.06
same,"Infected to normal tissue ratio, Liver","E. coli infected rats; With Avidin, 5 Min.",0.83±0.16
same,"Infected to normal tissue ratio, Lung","E. coli infected rats; With Avidin, 5 Min.",1.06±0.30
same,"Infected to normal tissue ratio, Spleen","E. coli infected rats; With Avidin, 5 Min.",0.64±0.11
same,"Infected to normal tissue ratio, Teste","E. coli infected rats; With Avidin, 5 Min.",2.00±0.37
same,"Infected to normal tissue ratio, bone","E. coli infected rats; With Avidin, 5 Min.",0.90±0.18
same,"Infected to normal tissue ratio, Norm mus","E. coli infected rats; With Avidin, 5 Min.",1.24±0.20
same,"Infected to normal tissue ratio, Adrenal","E. coli infected rats; With Avidin, 60 Min.",5.74±1.14
same,"Infected to normal tissue ratio, Blood","E. coli infected rats; With Avidin, 60 Min.",3.75±0.75
same,"Infected to normal tissue ratio, Heart","E. coli infected rats; With Avidin, 60 Min.",7.59±1.34
same,"Infected to normal tissue ratio, Kidney","E. coli infected rats; With Avidin, 60 Min.",2.04±0.35
same,"Infected to normal tissue ratio, Liver","E. coli infected rats; With Avidin, 60 Min.",4.05±0.65
same,"Infected to normal tissue ratio, Lung","E. coli infected rats; With Avidin, 60 Min.",4.83±0.91
same,"Infected to normal tissue ratio, Spleen","E. coli infected rats; With Avidin, 60 Min.",3.34±0.72
same,"Infected to normal tissue ratio, Teste","E. coli infected rats; With Avidin, 60 Min.",3.35±0.56
same,"Infected to normal tissue ratio, bone","E. coli infected rats; With Avidin, 60 Min.",0.28±0.07
same,"Infected to normal tissue ratio, Norm mus","E. coli infected rats; With Avidin, 60 Min.",6.39± 0.96
same,"Infected to normal tissue ratio, Norm mus","E. coli infected rats; With Avidin, 60 Min., listed as 18F-labeled biotin 1",6.39±0.96
same,"Infected to normal tissue ratio, Adrenal","E. coli infected rats; Without Avidin, 5 Min.",1.06±0.24
same,"Infected to normal tissue ratio, Blood","E. coli infected rats; Without Avidin, 5 Min.",1.30±0.86
same,"Infected to normal tissue ratio, Heart","E. coli infected rats; Without Avidin, 5 Min.",1.21±0.26
same,"Infected to normal tissue ratio, Kidney","E. coli infected rats; Without Avidin, 5 Min.",0.26±0.05
same,"Infected to normal tissue ratio, Liver","E. coli infected rats; Without Avidin, 5 Min.",0.89±0.25
same,"Infected to normal tissue ratio, Lung","E. coli infected rats; Without Avidin, 5 Min.",1.00±0.23
same,"Infected to normal tissue ratio, Spleen","E. coli infected rats; Without Avidin, 5 Min.",0.94±0.49
same,"Infected to normal tissue ratio, Teste","E. coli infected rats; Without Avidin, 5 Min.",2.14±0.60
same,"Infected to normal tissue ratio, bone","E. coli infected rats; Without Avidin, 5 Min.",1.06±0.33
same,"Infected to normal tissue ratio, Norm mus","E. coli infected rats; Without Avidin, 5 Min.",1.54±0.69
same,"Infected to normal tissue ratio, Adrenal","E. coli infected rats; Without Avidin, 60 Min.",5.20±1.20
same,"Infected to normal tissue ratio, Heart","E. coli infected rats; Without Avidin, 60 Min.",6.21±0.57
same,"Infected to normal tissue ratio, Lung","E. coli infected rats; Without Avidin, 60 Min.",4.21±0.69
same,"Infected to normal tissue ratio, Spleen","E. coli infected rats; Without Avidin, 60 Min.",2.98±0.30
same,"Infected to normal tissue ratio, Teste","E. coli infected rats; Without Avidin, 60 Min.",2.87±0.50
same,"Infected to normal tissue ratio, bone","E. coli infected rats; Without Avidin, 60 Min.",0.16±0.04
same,"Infected to normal tissue ratio, Norm mus","E. coli infected rats; Without Avidin, 60 Min.",6.08 ± 1.12
same,"Infected to normal tissue ratio, Norm mus","E. coli infected rats; Without Avidin, 60 Min., listed as 18F-Biotin 1",6.1±1.1
same,"Infected to normal tissue ratio, Norm mus",E. coli infected rats; [2],6.1
same,"Infected to normal tissue ratio, Norm mus",E. coli infected rats; [3],6.08±1.12
same,"Infected to normal tissue ratio, Norm mus","E. coli infected rats; Without Avidin, 60 Min., listed as biotin 1",6.08± 1.12
same,"Infected to normal tissue ratio, Blood",E. coli infected rats; [2],3.1
same,"Infected to normal tissue ratio, Kidney",E. coli infected rats; [2],2.0
same,"Infected to normal tissue ratio, Liver",E. coli infected rats; [2],3.5
same,"Infected to normal tissue ratio, Blood",E. coli infected rats; [3],3.09±0.54
same,"Infected to normal tissue ratio, Kidney",E. coli infected rats; [3],1.96±0.24
same,"Infected to normal tissue ratio, Liver",E. coli infected rats; [3],3.48±0.67
same,accumulation in kidney relative to blood,"E. coli infected rats; rat, in vivo, 5 min",4.5 fold
same,"Tissue distribution, Adrenal","E. coli infected rats; rat, in vivo, iv, 5 min",0.85±0.13 percent injected dose per gram
same,"Tissue distribution, Blood","E. coli infected rats; rat, in vivo, iv, 5 min",1.13±0.11 percent injected dose per gram
same,"Tissue distribution, Bone","E. coli infected rats; rat, in vivo, iv, 5 min",1.19±0.23 percent injected dose per gram
same,"Tissue distribution, Heart","E. coli infected rats; rat, in vivo, iv, 5 min",0.99±0.12 percent injected dose per gram
same,"Tissue distribution, Inf mus","E. coli infected rats; rat, in vivo, iv, 5 min",0.99±0.11 percent injected dose per gram
same,"Tissue distribution, Kidney","E. coli infected rats; rat, in vivo, iv, 5 min",4.01±0.77 percent injected dose per gram
same,"Tissue distribution, Liver","E. coli infected rats; rat, in vivo, iv, 5 min",1.29±0.17 percent injected dose per gram
same,"Tissue distribution, Norm mus","E. coli infected rats; rat, in vivo, iv, 5 min",0.82±0.12 percent injected dose per gram
same,"Tissue distribution, Spleen","E. coli infected rats; rat, in vivo, iv, 5 min",1.52±0.32 percent injected dose per gram
same,"Tissue distribution, Teste","E. coli infected rats; rat, in vivo, iv, 5 min",0.50±0.11 percent injected dose per gram
same,"Tissue distribution, Blood","E. coli infected rats; rat, in vivo, iv, 1 h",0.19±0.04 percent injected dose per gram
same,"Tissue distribution, Bone","E. coli infected rats; rat, in vivo, iv, 1 h",2.29±0.14 percent injected dose per gram
same,"Tissue distribution, Inf mus","E. coli infected rats; rat, in vivo, iv, 1 h",0.65±0.14 percent injected dose per gram
same,"Tissue distribution, Kidney","E. coli infected rats; rat, in vivo, iv, 1 h",0.32±0.04 percent injected dose per gram
same,"Tissue distribution, Norm mus","E. coli infected rats; rat, in vivo, iv, 1 h",0.10±0.02 percent injected dose per gram
same,"Tissue distribution, Spleen","E. coli infected rats; rat, in vivo, iv, 1 h",0.19±0.0 percent injected dose per gram
same,"Tissue distribution, Teste","E. coli infected rats; rat, in vivo, iv, 1 h",0.19±0.04 percent injected dose per gram
same,tissue uptake at 5 min,"in vivo; Tissue distribution, Adrenal",1 ± 0.2 %ID/g
same,tissue uptake at 1 h,"in vivo; Tissue distribution, Adrenal",0.09 ± 0.02 %ID/g
same,tissue uptake at 5 min,"in vivo; Tissue distribution, Blood",1.07 ± 0.31 %ID/g
same,tissue uptake at 1 h,"in vivo; Tissue distribution, Blood",0.14 ± 0.02 %ID/g
same,tissue uptake at 5 min,"in vivo; Tissue distribution, Bone",1.1 ± 0.16 %ID/g
same,tissue uptake at 1 h,"in vivo; Tissue distribution, Bone",2.94 ± 0.37 %ID/g
same,tissue uptake at 5 min,"in vivo; Tissue distribution, Heart",1 ± 0.34 %ID/g
same,tissue uptake at 1 h,"in vivo; Tissue distribution, Heart",0.14 ± 0.02 %ID/g
same,tissue uptake at 5 min,"in vivo; Tissue distribution, Inf mus",1.22 ± 0.36 %ID/g
same,tissue uptake at 1 h,"in vivo; Tissue distribution, Inf mus",0.43 ± 0.1 %ID/g
same,tissue uptake at 5 min,"in vivo; Tissue distribution, Kidney",4.78 ± 0.8 %ID/g
same,tissue uptake at 1 h,"in vivo; Tissue distribution, Kidney",0.23 ± 0.05 %ID/g
same,tissue uptake at 5 min,"in vivo; Tissue distribution, Liver",1.39 ± 0.16 %ID/g
same,tissue uptake at 1 h,"in vivo; Tissue distribution, Liver",0.13 ± 0.03 %ID/g
same,tissue uptake at 5 min,"in vivo; Tissue distribution, Lung",1.21 ± 0.13 %ID/g
same,tissue uptake at 1 h,"in vivo; Tissue distribution, Lung",0.11 ± 0.02 %ID/g
same,tissue uptake at 5 min,"in vivo; Tissue distribution, Norm mus",0.83 ± 0.09 %ID/g
same,tissue uptake at 1 h,"in vivo; Tissue distribution, Norm mus",0.078 ± 0.02 %ID/g
same,tissue uptake at 5 min,"in vivo; Tissue distribution, Spleen",1.4 ± 0.3 %ID/g
same,tissue uptake at 1 h,"in vivo; Tissue distribution, Spleen",0.14 ± 0.03 %ID/g
same,tissue uptake at 5 min,"in vivo; Tissue distribution, Teste",0.57 ± 0.02 %ID/g
same,tissue uptake at 1 h,"in vivo; Tissue distribution, Teste",0.16 ± 0.03 %ID/g
same,tissue uptake at 1 h,in vivo; ^18F bone uptake (defluorination in vivo),2.94 ± 0.37 %ID/g
^67Ga-citrate,Infected/normal muscle ratio,[1],2.6±0.6
